PMC1865377, “A novel bifunctional N-acetylglutamate synthase-kinase from Xanthomonas campestris that is closely related to mammalian N-acetylglutamate synthase” (BMC Biochemistry, 2007)

Key:
[1] = target: T1, H6XcNAGS-K (Xanthomonas campestris, UniProt A0A0H2X8L7); experiment: synthase activity, LC-MS of N-acetylglutamate; type: biochemical; conditions: 50 mM L-glutamate, 2 mM AcCoA, pH 9.0, 30 °C
T1 construct: gene XC_1873; full length, E. coli BL21(DE3), pET15b, N-terminal polyhistidine tag and thrombin site kept
T1 sequence (A0A0H2X8L7 1-447): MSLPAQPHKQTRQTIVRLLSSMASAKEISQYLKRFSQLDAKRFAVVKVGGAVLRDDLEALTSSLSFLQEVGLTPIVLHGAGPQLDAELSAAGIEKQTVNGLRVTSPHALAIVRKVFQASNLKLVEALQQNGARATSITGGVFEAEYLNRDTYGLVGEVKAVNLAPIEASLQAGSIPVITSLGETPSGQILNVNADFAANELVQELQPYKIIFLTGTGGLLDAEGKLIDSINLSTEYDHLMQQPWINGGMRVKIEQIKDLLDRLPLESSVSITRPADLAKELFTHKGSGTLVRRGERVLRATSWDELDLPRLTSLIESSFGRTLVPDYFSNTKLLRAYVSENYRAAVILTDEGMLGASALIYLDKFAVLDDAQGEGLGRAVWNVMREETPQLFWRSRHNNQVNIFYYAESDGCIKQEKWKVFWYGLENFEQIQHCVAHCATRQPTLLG

[2] = target: T1, H6XcNAGS-K; experiment: kinase activity, colorimetric hydroxamate assay; type: biochemical; conditions: 100 mM N-acetylglutamate, 20 mM ATP, 40 mM MgCl2, 400 mM hydroxylamine, pH 6.0, 30 °C

With `N=C(N)NCCC[C@H](N)C(=O)O` [L-arginine] the half-inhibition [1] was “presence of an affinity tag did not affect the inhibition of the synthase activity of XcNAGS-K” and the half-inhibition [2] was “half-inhibition of the kinase activities of XcNAGS-K with and without polyhistidine differed two-fold”.
